Laboratory results from patent US20190071796A1, “PROCESS AND APPARATUS FOR MAKING ALIGNED OR TWISTED ELECTROSPUN FIBERS AND DEVICES” (The Johns Hopkins University, priority 2016, published 2019).

Assay: In vitro release of sunitinib from PLGA nanofiber-based mesh
Format: physicochemical
Conditions: 10% sunitinib/PLGA (w/w) (FIG. 14)

- duration of in vitro sustained release: 30 days
SMILES: CCN(CC)CCNC(=O)c1c(C)[nH]c(/C=C2\C(=O)Nc3ccc(F)cc32)c1C [sunitinib, Sunitinib malate]
